Measurements: ChEMBL document CHEMBL1817628, “Structure-based design of new DHFR-based antibacterial agents: 7-aryl-2,4-diaminoquinazolines” (Bioorg Med Chem Lett, 2011)
Values after ≈ are worked out from the molar mass of the structure shown.

Assays:
Escherichia coli = experiment: Antibacterial activity against Escherichia coli ATCC 35218 by CLSI microdilution method; assay type: functional
Enterococcus faecalis = experiment: Antibacterial activity against Enterococcus faecalis ATCC 29212 by CLSI microdilution method; assay type: functional
Haemophilus influenzae = experiment: Antibacterial activity against ampicillin-resistant Haemophilus influenzae ATCC 49247 by CLSI microdilution method; assay type: functional
Staphylococcus aureus [1] = experiment: Antibacterial activity against Staphylococcus aureus Smith ATCC 13709 by CLSI microdilution method; assay type: functional
Staphylococcus aureus [2] = experiment: Antibacterial activity against Staphylococcus aureus Smith ATCC 13709 in presence of 20% mouse serum by CLSI microdilution method; assay type: functional
[3] = Inhibition of Haemophilus influenzae DHFR assessed as oxidation of NADPH using dihydrofolate as substrate pre-incubated for 10 mins before substrate addition by spectrophotometry
Dihydrofolate reductase [4] = target: T1, Dihydrofolate reductase (Homo sapiens, UniProt P00374); experiment: Inhibition of human DHFR assessed as oxidation of NADPH using dihydrofolate as substrate pre-incubated for 10 mins before substrate addition by spectrophotometry
T1 sequence (P00374 whole entry): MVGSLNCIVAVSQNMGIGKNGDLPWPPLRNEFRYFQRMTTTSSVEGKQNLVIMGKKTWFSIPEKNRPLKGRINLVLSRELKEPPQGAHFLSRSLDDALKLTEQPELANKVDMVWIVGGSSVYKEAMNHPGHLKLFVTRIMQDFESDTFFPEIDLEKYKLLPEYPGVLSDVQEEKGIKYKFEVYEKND

Dihydrofolate reductase [5] = target: Dihydrofolate reductase (Staphylococcus aureus, UniProt P0A017); experiment: Inhibition of Staphylococcus aureus DHFR assessed as oxidation of NADPH using dihydrofolate as substrate pre-incubated for 10 mins before substrate addition by spectrophotometry
Dihydrofolate reductase [6] = target: Dihydrofolate reductase (Staphylococcus aureus, UniProt P0A017, F99Y); experiment: Inhibition of TMP-resistant Staphylococcus aureus DHFR F99Y mutant assessed as oxidation of NADPH using dihydrofolate as substrate pre-incubated for 10 mins before substrate addition by spectrophotometry
Staphylococcus aureus [7] = experiment: Antibacterial activity against TMP-resistant Staphylococcus aureus harboring DHFR F99Y mutant by CLSI microdilution method; assay type: functional

SMILES | MIC (Escherichia coli) [µg/mL] | MIC (Enterococcus faecalis) [µg/mL] | MIC (Haemophilus influenzae) [µg/mL] | MIC (Staphylococcus aureus [1]) [µg/mL] | MIC (Staphylococcus aureus [2]) [µg/mL] | Ki [3] [nM] | Ki (Dihydrofolate reductase [4]) [nM] | Ki (Dihydrofolate reductase [5]) [nM] | Ki (Dihydrofolate reductase [6]) [nM] | MIC (Staphylococcus aureus [7]) [µg/mL]
CC(=O)c1cccc(-c2cc3nc(N)nc(N)c3cc2C)c1 | 4 (≈ 13.7 µM) | 0.5 (≈ 1.71 µM) | 1 (≈ 3.42 µM) | 0.5 (≈ 1.71 µM) | 1 | 0.006 |  |  |  | 
CCOc1ccc(C=O)cc1-c1cc2nc(N)nc(N)c2cc1C | 16 (≈ 49.6 µM) | 0.5 (≈ 1.55 µM) | 2 (≈ 6.2 µM) | 1 (≈ 3.1 µM) | 1 | 0.22 | 12 | 0.24 |  | 
CS(=O)(=O)c1ccc(-c2ccc3c(N)nc(N)nc3c2)cc1 | > 64 | 16 (≈ 50.9 µM) | 16 (≈ 50.9 µM) | 8 (≈ 25.4 µM) | 8 | 0.22 | 253 | 5 |  | 
COc1ccc(-c2cc3nc(N)nc(N)c3cc2C)cc1OC | 8 (≈ 25.8 µM) | 0.5 (≈ 1.61 µM) | 4 (≈ 12.9 µM) | 0.5 (≈ 1.61 µM) | 0.5 | 0.0018 | 12.2 | 0.35 |  | 
CCOc1ccc2[nH]ccc2c1-c1cc2nc(N)nc(N)c2cc1C | 8 (≈ 24 µM) | 0.25 (≈ 0.75 µM) | 16 (≈ 48 µM) | 0.25 (≈ 0.75 µM) | 1 | 0.082 | 245 | 0.61 |  | 
CCOc1ccc(C)cc1-c1cc2nc(N)nc(N)c2cc1C | 16 (≈ 51.9 µM) | 0.5 (≈ 1.62 µM) | 16 (≈ 51.9 µM) | 1 (≈ 3.24 µM) | 4 | 0.034 | 22.2 | 0.85 |  | 
CCOc1ccc2ccccc2c1-c1cc2nc(N)nc(N)c2cc1C | 16 (≈ 46.5 µM) | 0.5 (≈ 1.45 µM) | 16 (≈ 46.5 µM) | 0.125 (≈ 0.363 µM) | 0.5 | 0.015 |  |  | 2.4 | 1 (≈ 2.9 µM)
COc1cc(Cc2cnc(N)nc2N)cc(OC)c1OC [TRIMETHOPRIM] | 1 (≈ 3.44 µM) | 0.5 (≈ 1.72 µM) | 0.5 (≈ 1.72 µM) | 1 (≈ 3.44 µM) | 1 | 0.19 |  |  |  | 32 (≈ 110 µM)
CCOc1ccc(C(=O)N(CC)CC)cc1-c1cc2nc(N)nc(N)c2cc1C | 64 (≈ 163 µM) | 0.5 (≈ 1.27 µM) | 64 (≈ 163 µM) | 0.5 (≈ 1.27 µM) | 0.5 | 0.013 |  |  | 6 | 8 (≈ 20.3 µM)
CCOc1ccc(-c2cccnc2)cc1-c1ccc2c(N)nc(N)nc2c1 | > 16 | 0.5 (≈ 1.4 µM) | 16 (≈ 44.8 µM) | 0.5 (≈ 1.4 µM) | 8 | 0.011 | 10.1 | 0.3 |  | 
CCOc1ccccc1-c1ccc2c(N)nc(N)nc2c1 | 32 (≈ 114 µM) | 4 (≈ 14.3 µM) | 16 (≈ 57.1 µM) | 4 (≈ 14.3 µM) | 8 | 0.27 | 85 | 3.1 |  | 
CC(=O)c1cccc(-c2ccc3c(N)nc(N)nc3c2)c1 | 32 (≈ 115 µM) | 4 (≈ 14.4 µM) | 64 (≈ 230 µM) | 4 (≈ 14.4 µM) | 8 | 0.31 |  |  |  | 
Cc1cc2c(N)nc(N)nc2cc1-c1ccc(S(C)(=O)=O)cc1 | 32 (≈ 97.4 µM) | 1 (≈ 3.05 µM) | 8 (≈ 24.4 µM) | 2 (≈ 6.09 µM) | 1 | 0.0023 | 44.1 | 1.2 |  | 
COc1ccc(OC)c(-c2cc3nc(N)nc(N)c3cc2C)c1 | 16 (≈ 51.6 µM) | 4 (≈ 12.9 µM) | 8 (≈ 25.8 µM) | 1 (≈ 3.22 µM) | 1 | 0.014 |  |  |  | 
Nc1ccc(-c2ccc3c(N)nc(N)nc3c2)cc1 | 32 (≈ 127 µM) | 8 (≈ 31.8 µM) | 4 (≈ 15.9 µM) | 4 (≈ 15.9 µM) | 2 | 0.16 |  |  |  | 
CCOc1ccc(-c2cccc(NS(C)(=O)=O)c2)cc1-c1ccc2c(N)nc(N)nc2c1 | 64 (≈ 142 µM) | 0.5 (≈ 1.11 µM) | 8 (≈ 17.8 µM) | 0.5 (≈ 1.11 µM) | 2 | 0.0049 |  |  |  | 
CCOc1ccc(Br)cc1-c1cc2nc(N)nc(N)c2cc1C | 32 (≈ 85.7 µM) | 0.5 (≈ 1.34 µM) | 32 (≈ 85.7 µM) | 1 (≈ 2.68 µM) | 8 | 0.044 | 11.1 | 0.76 |  | 
CCc1ccccc1-c1cc2nc(N)nc(N)c2cc1C | 8 (≈ 28.7 µM) | 0.25 (≈ 0.898 µM) | 8 (≈ 28.7 µM) | 0.25 (≈ 0.898 µM) | 0.5 | 0.032 | 41.1 | 0.19 |  | 
COc1cc(Cc2cnc(N)nc2N)c2c(c1OC)OC(C1CC1)C=C2 (configuration not stated) | 4 (≈ 11.3 µM) | 0.03 (≈ 0.0846 µM) | 1 (≈ 2.82 µM) | 0.13 (≈ 0.367 µM) | 0.13 | 0.007 |  |  |  | 2 (≈ 5.64 µM)
Cc1cc2c(N)nc(N)nc2cc1-c1ccc(N)cc1 | 8 (≈ 30.2 µM) | 0.5 (≈ 1.88 µM) | 2 (≈ 7.54 µM) | 1 (≈ 3.77 µM) | 1 | 0.0018 |  |  |  | 
Cc1cc2c(N)nc(N)nc2cc1-c1ccccc1 | 8 (≈ 32 µM) | 0.5 (≈ 2 µM) | 2 (≈ 7.99 µM) | 1 (≈ 4 µM) | 2 | 0.0073 | 129 | 1.6 |  | 
Nc1nc(N)c2ccc(-c3ccccc3)cc2n1 | 16 (≈ 67.7 µM) | 8 (≈ 33.9 µM) | 16 (≈ 67.7 µM) | 8 (≈ 33.9 µM) | 64 | 0.52 | 743 | 9.1 |  | 
Cc1cc2c(N)nc(N)nc2cc1-c1ccccc1C(C)C | 16 (≈ 54.7 µM) | 0.5 (≈ 1.71 µM) | 8 (≈ 27.4 µM) | 0.25 (≈ 0.855 µM) | 1 | 0.037 | 20.9 | 0.13 |  | 
COc1ccccc1-c1ccc2c(N)nc(N)nc2c1 | 32 (≈ 120 µM) | 4 (≈ 15 µM) | 16 (≈ 60.1 µM) | 2 (≈ 7.51 µM) | 4 | 0.21 |  |  |  | 
Cc1ccccc1-c1cc2nc(N)nc(N)c2cc1C | 8 (≈ 30.3 µM) | 0.5 (≈ 1.89 µM) | 4 (≈ 15.1 µM) | 0.5 (≈ 1.89 µM) | 2 | 0.037 | 95.6 | 0.77 |  | 
CCOc1ccc(Cl)cc1-c1cc2nc(N)nc(N)c2cc1C | 8 (≈ 24.3 µM) | 0.5 (≈ 1.52 µM) | 8 (≈ 24.3 µM) | 1 (≈ 3.04 µM) | 2 | 0.023 | 11.1 | 0.38 |  | 
